This note sets out measurements from patent US4085224A, “Method of increasing feed utilization” (Eli Lilly and Company, priority 1976, dated 1978).

In one experiment the test system is rumen fluid. Description: in vitro rumen fluid volatile fatty acid production. The arrangement: species or system steer. The following applies: 1 ppm in rumen fluid, 16 hours at 38° C. From the text:
As discussed hereinabove, efficiency of carbohydrate utilization in ruminants is increased by treatments which stimulate the amimal's rumen flora to produce propionate compounds rather than acetate or butyrate compounds. The efficiency of feed use can be monitored by observing the production and concentration of propionate compounds in the rumen, using the following methods:
Remen fluid is obtained from a steer with a surgically-installed fistula opening into the rumen. The steer is maintained on a high-grain ration. A sample of rumen fluid is strained through four layers of cheesecloth, and the filtrate is collected. The particulate matter retained by the cheesecloth is resuspended in enough physiological buffer to return it to the original volume of the rumen fluid, and this suspension is strained again. The buffer used has the following composition:
The two filtrates are combined and allowed to stand until particulate matter separates to the top. The clear layer is separated, diluted with the same buffer (1:1) and then adjusted to between pH 6.8 to 7.0.
The diluted rumen fluid (10 ml) is placed in a 25-ml flask with 40 mg of the above-described feed, an additional 1 mg of soybean protein, and the compound to be tested. Four replicate flasks are used per treatment. Two sets of four control flasks each are also employed. A zero-time control and an incubated 16-hour control are used. All test flasks are incubated for 16 hours at 38° C. […] The samples are allowed to settle, and the supernatants are analyzed by gas chromatography for propionate, acetate, and butyrate compounds.

Experiment [1] deals with Staphylococcus aureus (H-Heatley) NRRL B-314. Kind of experiment: turbidometric assay on semiautomated system (Autoturb), relative gram-positive activity. The note with it: relative to A-28086 factor A (standard); nutrient broth pH 7, four hours at 37° C. The format is cell-based. The method, then: The C2 -C6 -acyl ester derivatives of A-28086 factor A also have antibacterial and antifungal activity. In one aspect, these derivatives have increased gram-positive activity. The relative gram-positive activities of certain of these derivatives were compared with the activity of factor A. The compounds were tested by turbidometric assay on a semiautomated system (Autoturb® microbiological assay system, Elanco) described by N. R. Kuzel and F. W. Kavanaugh in J. Pharmaceut. Sci. 60 (5), 764 and 767 (1971). In testing the A-28086 antibiotics, the following test parameters were used: Staphylococcus aureus (H-Heatley) NRRL B-314 in a nutrient broth medium (pH 7), incubated for four hours at 37° C. Test samples and the standard were dissolved in methanol-water (10:90). The standard, A-28086 factor A, was presented to the Autoturb® carrousel at concentrations of 2, 3, 4, and 5 mcg/ml. Test compounds were diluted to contain approximately 3 or 4 mcg of activity per ml, as presented to the carrousel. The relative activities of test compounds, as compared to that of the standard, are given below: […]

Consider `CCCC(=O)OC1C=CC2(OC(C(CC)C(=O)C(C)C(O)C(C)C3OC(C(CC)C(=O)O)C(C)CC3C)C(C)CC2C)OC12CCC(C)(C1CCC(O)(CC)C(C)O1)O2` (stereo not shown), for which, in the experiment with rumen fluid, the “Ratio of Treated to Control, Molar % acetate” value (“Ratio … Molar % acetate” for short) came to 0.91; the “Ratio of Treated to Control, Molar % butyrate” value (“Ratio … Molar % butyrate” below) came out at 0.81; the “Ratio of Treated to Control, Molar % propionate” value (“Ratio … Molar % propionate” below) is 1.56; the “Ratio of Treated to Control, Total VFA mM/l” value (from here on “Ratio … Total VFA mM/l”) is 1.19. In addition, the “Relative G+ Activity” value in experiment [1] is recorded as 8.
Regarding `CCCCCC(=O)OC1C=CC2(OC(C(CC)C(=O)C(C)C(O)C(C)C3OC(C(CC)C(=O)O)C(C)CC3C)C(C)CC2C)OC12CCC(C)(C1CCC(O)(CC)C(C)O1)O2` (stereo not shown), in the experiment on rumen fluid, the “Ratio … Molar % acetate” value stood at 0.86; the “Ratio … Molar % butyrate” value came out at 0.97; the “Ratio … Molar % propionate” value came out at 1.57; the “Ratio … Total VFA mM/l” value was determined as 0.99. In experiment [1], the “Relative G+ Activity” value amounted to 20.
As to `CCC(=O)OC1C=CC2(OC(C(CC)C(=O)C(C)C(O)C(C)C3OC(C(CC)C(=O)O)C(C)CC3C)C(C)CC2C)OC12CCC(C)(C1CCC(O)(CC)C(C)O1)O2` (stereo not shown), in the experiment on rumen fluid, the “Ratio … Molar % acetate” value came out at 0.90; the “Ratio … Molar % butyrate” value was 0.68; the “Ratio … Molar % propionate” value is 1.73; the “Ratio … Total VFA mM/l” value stood at 1.25. For the same molecule, the “Relative G+ Activity” value in experiment [1] was found to be 7.
Taken in the same sequence, the figures for `CCCCC(=O)OC1C=CC2(OC(C(CC)C(=O)C(C)C(O)C(C)C3OC(C(CC)C(=O)O)C(C)CC3C)C(C)CC2C)OC12CCC(C)(C1CCC(O)(CC)C(C)O1)O2` (stereo not shown) were 0.92, 0.79, 1.55, 1.18 and 14.
On to `CCC(C(=O)O)C1OC(C(C)C(O)C(C)C(=O)C(CC)C2OC3(C=CC(OC(C)=O)C4(CCC(C)(C5CCC(O)(CC)C(C)O5)O4)O3)C(C)CC2C)C(C)CC1C` (stereo not shown) [A-28086 factor A acetyl ester derivative], for which, in the experiment with rumen fluid, the “Ratio … Molar % acetate” value is listed as 0.79; the “Ratio … Molar % butyrate” value is reported as 0.76; the “Ratio … Molar % propionate” value is listed as 2.04; the “Ratio … Total VFA mM/l” value amounted to 1.04. Also, the “Relative G+ Activity” value in experiment [1] came to 2.5.
